Results as given in patent US20030180827A1, “Highly sensitive and continuous protein tyrosine phosphatase test using 6,8-difluoro-4-methylumbelliferyl phosphate” (Aventis Pharma Deutschland Gmbh., priority 2002, published 2003).

What was measured:
Format in all cases: biochemical
[1] = molecular target: T1, protein tyrosine phosphatase PTP1B (Homo sapiens, UniProt P18031); assay: Concentration dependence of the cleavage of DiFMUP by PTP1B (Lineweaver-Burk analysis); conditions: DiFMUP as substrate 0-200 μM, 100 ng PTP1b/ml, pH 6.9, 37° C.
T1 sequence (P18031 1-435): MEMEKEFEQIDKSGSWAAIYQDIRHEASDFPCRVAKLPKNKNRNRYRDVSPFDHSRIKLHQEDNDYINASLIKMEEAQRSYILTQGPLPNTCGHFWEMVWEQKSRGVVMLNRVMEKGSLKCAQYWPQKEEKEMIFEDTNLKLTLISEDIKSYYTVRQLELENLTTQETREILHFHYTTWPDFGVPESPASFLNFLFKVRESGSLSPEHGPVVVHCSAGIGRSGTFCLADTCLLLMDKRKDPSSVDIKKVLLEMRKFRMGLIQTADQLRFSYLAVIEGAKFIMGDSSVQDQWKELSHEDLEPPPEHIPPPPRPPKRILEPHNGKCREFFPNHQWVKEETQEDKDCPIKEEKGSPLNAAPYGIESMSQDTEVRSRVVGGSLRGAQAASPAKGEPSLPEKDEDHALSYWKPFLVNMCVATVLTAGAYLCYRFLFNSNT
Procedure: The reaction takes place in a black microtiter plate at a temperature of 37° C. 135 μl of reaction buffer are provided in each case, with this buffer containing the following components: 100 ng of protein tyrosine phosphatase PTP1b/ml; 50 mM Hepes, pH 6.9; 150 mM NaCl; 1 mM EDTA; 2 mM DTT. The phosphatase reaction is started by adding 15 μl of DiFMUP solution, which contains the substrate at 10 times the final concentration which is desired in the test mixture (FIG. 2: 0-200 μM), and the fluorescence is measured, at time intervals of 30 seconds for a period of 15 minutes, in a fluorescence microtiter plate photometer at 358/455 nm. The measure of the enzyme activity is the increase in fluorescence (measured in RFU) in dependence on the DiFMUP concentration, which can be depicted graphically (FIG. 2). This graph can subsequently be used to determine the kinetic constants of the enzyme reaction by means of a Lineweaver-Burk analysis. […] This analysis can also be carried out in an analogous manner for other tyrosine phosphatases.

PTP1B [2] = molecular target: T2, PTP1B (Homo sapiens, UniProt P18031); assay: malachite green phosphopeptide test; conditions: malachite green phosphopeptide test method, for comparison
T2 sequence (P18031 1-435): T1 sequence (P18031 1-435)
Source text: The malachite green phosphopeptide test has been described as another method for measuring the activity of protein tyrosine phosphatases. Martin et al. (1985) Journal of Biological Chemistry, 260, pp. 14932 and Harder et al. (1994) Biochemical Journal, 298, pp. 395. In this method, the inorganic phosphate which the phosphatase has released from its substrate peptide is detected photometrically using the malachite green reagent. […]
The test for determining the inhibitory effect of the active compound 2,2-dioxo-2,3dihydro-2,6-benzo[1,2,3]oxathiazol-5-yl)-(9-ethyl-9H-carbazol-3-ylmethyl)amine using the DiFMUP test takes place in a black microtiter plate at a temperature of 37° C. […] The phosphatase reaction is started by adding 15 μl of 1 mM DiFMUP solution and the fluorescence (measured in RFU) is measured, at time intervals of 30 seconds and over a period of 15 minutes, in a fluorescence microtiter plate photometer at 358/455 nm. The measure of the enzyme activity is the increase in fluorescence, which can be depicted graphically (FIG. 1). […] The inhibitor concentration at which the active compound 2,2-dioxo-2,3-dihydro-2,6-benzo[1,2,3]oxathiazol-5-yl)-(9-ethyl-9H-carbazol-3-ylmethyl)amine reduces the activity of the PTP1B by half (IC-50) can be determined to be 3.8 μM. The IC-50 values using the pNPP test method and the malachite green phosphopeptide test were determined for comparison. […]

[3] = molecular target: T1, protein tyrosine phosphatase PTP1B; assay: DiFMUP test, inhibition of PTP1B; conditions: DiFMUP substrate, 100 ng PTP1B/ml, pH 6.9, 37° C.; read-out: inhibitor concentration that reduces the activity of the PTP1B by half (IC-50)
Procedure: The test for determining the inhibitory effect of the active compound 2,2-dioxo-2,3dihydro-2,6-benzo[1,2,3]oxathiazol-5-yl)-(9-ethyl-9H-carbazol-3-ylmethyl)amine using the DiFMUP test takes place in a black microtiter plate at a temperature of 37° C. 120 μl volumes of reaction buffer are provided, with the buffer containing the following components: 100 ng of protein tyrosine phosphatase PTP1B/ml; 50 mM Hepes, pH 6.9; 150 mM NaCl; 1 mM EDTA; 2 mM DTT. To this are added 15 μl of the inhibitor solution to be tested, at a variety of concentrations. The phosphatase reaction is started by adding 15 μl of 1 mM DiFMUP solution and the fluorescence (measured in RFU) is measured, at time intervals of 30 seconds and over a period of 15 minutes, in a fluorescence microtiter plate photometer at 358/455 nm. The measure of the enzyme activity is the increase in fluorescence, which can be depicted graphically (FIG. 1). The reduction in enzymic activity which is obtained depends on the concentration of inhibitor employed. The inhibitor concentration at which the active compound 2,2-dioxo-2,3-dihydro-2,6-benzo[1,2,3]oxathiazol-5-yl)-(9-ethyl-9H-carbazol-3-ylmethyl)amine reduces the activity of the PTP1B by half (IC-50) can be determined to be 3.8 μM. The IC-50 values using the pNPP test method and the malachite green phosphopeptide test were determined for comparison. […]

PTP1B [4] = molecular target: T2, PTP1B; assay: pNPP test method; conditions: for comparison
Source text: The prior art discloses methods for measuring the activity of a protein tyrosine phosphatase using the substrate p-nitrophenyl phosphate (“p-NPP”). These methods are to be found in standard biochemical manuals such as Current Protocols in Protein Science: John E. Coligan (ed.), Ben M. Dunn (ed.), Hidde L. Ploegh (ed.), David W. Speicher (ed.), Paul T. Wingfield (ed.); SBN: 0-471-11184-8; loose-leaf pages, continuously updated; published by John Wiley & Sons. In these methods, the action of a phosphatase forms p-nitrophenol from the p-NPP. The p-nitrophenol thus produced can be measured photometrically on the basis of its intense yellow color in the alkaline range.
However, this test method has some unfavorable features. […] The increase in the pH leads to the color of the resulting p-nitrophenol changing to yellow, the absorption of which is determined photometrically and is a measure of the quantity of p-nitrophenol which is present. […]
The test for determining the inhibitory effect of the active compound 2,2-dioxo-2,3dihydro-2,6-benzo[1,2,3]oxathiazol-5-yl)-(9-ethyl-9H-carbazol-3-ylmethyl)amine using the DiFMUP test takes place in a black microtiter plate at a temperature of 37° C. […] The measure of the enzyme activity is the increase in fluorescence, which can be depicted graphically (FIG. 1). […]

Row | Compound | Km [1] [µM] | Vmax [1] [RFU sec-1 mg-1] | IC50 (PTP1B [2]) [µM] | IC50 [3] [µM] | IC50 (PTP1B [4]) [µM]
1 | Cc1cc(=O)oc2c(F)c(OP(=O)(O)O)c(F)cc12 [DiFMUP, 6,8-difluoro-4-methylumbelliferyl phosphate] | 19 | 388000 | – | – | –
2 | CCn1c2ccccc2c2cc(CNc3ccc4c(c3)NS(=O)(=O)O4)ccc21 [2,2-dioxo-2,3-dihydro-2,6-benzo[1,2,3]oxathiazol-5-yl)-(9-ethyl-9H-carbazol-3-ylmethyl)amine] | – | – | 3.9 | 3.8 | 5.1
